Earlier results in patent USRE41289E1, “Ultrashort acting hypnotic barbiturates” (ARYx Therapeutics, Inc., priority 2000, dated 2010).

Conditions: in vivo

Question: With CN1C(=O)NC(=O)C(C)(C2=CCCCC2)C1=O (stereo not shown) [hexobarbital] as the compound, how does the half-life of elimination read?
Answer: The half-life of elimination was 2.7 to 7 h.
